Measurements reported in patent publication US20100311714A1, “1H-IMIDAZO[4,5-c]QUINOLINONE COMPOUNDS” (priority 2009, published 2010).
Read-outs that look alike come from different tables or passages of the source.

Tests used:
[1] = test system: PKB Ser473 phosphorylation in Rat1-myr-HA-p110 delta cells; assay: Reverse protein array, PKB Ser473 phosphorylation in Rat1-myr-HA-p110 delta cells; format: cell-based; details: Rattus norvegicus, 0.5 h, 30 minutes compound incubation, read-out: p-PKB/IC50_delta
[2] = test system: S6 Ribosomal Protein phosphorylation Ser235/236 in TSC1 null mouse embryo fibroblast (MEF) cells; assay: Reverse protein array, S6 Ribosomal Protein phosphorylation in TSC1 null MEF cells; format: cell-based; details: 1 h, TSC1-/- MEFs, 60 minutes
In short: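 Phospho-S6 (Ser235/236) was quantified by reverse protein array of cell lysates with a phospho-specific primary antibody. […]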

| SMILES | IC50 [1] [nM] | IC50 ([2]; read-out: p-S6 IC50) [nM] | IC50 ([2]; read-out: p-S6) [nM] |
| --- | --- | --- | --- |
| CNc1ncc(-c2ccc3ncc4c(c3c2)n(-c2ccc(OCCOC)nc2C)c(=O)n4C)cn1 [Example 13.5, 1-[6-(2-Methoxy-ethoxy)-2-methyl-pyridin-3-yl]-3-methyl-8-(2-methylamino-pyrimidin-5-yl)-1,3-dihydro-imidazo[4,5-c]quinolin-2-one] | 37.1 | 1.1 | – |
| CCNc1cc(-c2ccc3ncc4c(c3c2)n(-c2ccc(N(C)CCOC)nc2C)c(=O)n4C)cnc1C [Example 15.6, 8-(5-Ethylamino-6-methyl-pyridin-3-yl)-1-{6-[(2-methoxy-ethyl)-methyl-amino]-2-methyl-pyridin-3-yl}-3-methyl-1,3-dihydro-imidazo[4,5-c]quinolin-2-one] | 6.8 | 3 | – |
| Cc1ccc(-n2c(=O)n(C)c3cnc4ccc(-c5cncc(NC(C)C)c5)cc4c32)c(C)n1 [Example 14.8, 1-(2,6-Dimethyl-pyridin-3-yl)-8-(5-isopropylamino-pyridin-3-yl)-3-methyl-1,3-dihydro-imidazo[4,5-c]quinolin-2-one] | 34.4 | 2 | – |
| Cc1nc(N(C)C)ccc1-n1c(=O)n(C)c2cnc3ccc(-c4cncc(N)c4)cc3c21 [Example 19.5, 8-(5-Amino-pyridin-3-yl)-1-(6-dimethylamino-2-methyl-pyridin-3-yl)-3-methyl-1,3-dihydro-imidazo[4,5-c]quinolin-2-one] | 46.4 | – | – |
| COCc1ncc(-c2ccc3ncc4c(c3c2)n(-c2ccc(OC)nc2OC)c(=O)n4C)cc1OC [Example 8.12, 1-(2,6-Dimethoxy-pyridin-3-yl)-8-(5-methoxy-6-methoxymethyl-pyridin-3-yl)-3-methyl-1,3-dihydro-imidazo[4,5-c]quinolin-2-one] | 134 | 4 | – |
| Cc1nc(F)ccc1-n1c(=O)n(C)c2cnc3ccc(-c4cncc(N)c4)cc3c21 [Example 7.16, 8-(5-Amino-pyridin-3-yl)-1-(6-fluoro-2-methyl-pyridin-3-yl)-3-methyl-1,3-dihydro-imidazo[4,5-c]quinolin-2-one] | 78.5 | 26 | – |
| COc1ccc(-n2c(=O)n(C)c3cnc4ccc(-c5cnc(N)c(C(F)(F)F)c5)cc4c32)c(OC)n1 [Example 8.1, 8-(6-Amino-5-trifluoromethyl-pyridin-3-yl)-1-(2,6-dimethoxy-pyridin-3-yl)-3-methyl-1,3-dihydro-imidazo[4,5-c]quinolin-2-one] | 10.7 | – | 1.07 |
| CNc1ncc(-c2ccc3ncc4c(c3c2)n(-c2ccc(F)nc2C)c(=O)n4C)cc1C(F)(F)F [Example 7.13, 1-(6-Fluoro-2-methyl-pyridin-3-yl)-3-methyl-8-(6-methylamino-5-trifluoromethyl-pyridin-3-yl)-1,3-dihydro-imidazo[4,5-c]quinolin-2-one] | 37.9 | – | – |
| CCNc1cc(-c2ccc3ncc4c(c3c2)n(-c2ccc(OC)nc2Cl)c(=O)n4C)cnc1C [Example 18.1, 1-(2-Chloro-6-methoxy-pyridin-3-yl)-8-(5-ethylamino-6-methyl-pyridin-3-yl)-3-methyl-1,3-dihydro-imidazo[4,5-c]quinolin-2-one] | < 4.57 | < 0.457 | – |
| COc1ncccc1-n1c(=O)n(C)c2cnc3ccc(-c4ccc(F)nc4)cc3c21 [Example 1.8, 8-(6-Fluoro-pyridin-3-yl)-1-(2-methoxy-pyridin-3-yl)-3-methyl-1,3-dihydro-imidazo[4,5-c]quinolin-2-one] | 612 | – | – |
| COCCN(C)c1ccc(-n2c(=O)n(C)c3cnc4ccc(-c5cnc(N(C)C)nc5)cc4c32)c(C)n1 [Example 15.5, 8-(2-Dimethylamino-pyrimidin-5-yl)-1-{6-[(2-methoxy-ethyl)-methyl-amino]-2-methyl-pyridin-3-yl}-3-methyl-1,3-dihydro-imidazo[4,5-c]quinolin-2-one] | 229 | 19 | – |
| Cc1ccc(-n2c(=O)n(C)c3cnc4ccc(-c5cnc(N)c(C(F)(F)F)c5)cc4c32)c(C)n1 [Example 14.5, 8-(6-Amino-5-trifluoromethyl-pyridin-3-yl)-1-(2,6-dimethyl-pyridin-3-yl)-3-methyl-1,3-dihydro-imidazo[4,5-c]quinolin-2-one] | 14.4 | 1 | – |
| COc1ncccc1-n1c(=O)n(C)c2cnc3ccc(-c4cnc(N(C)C)nc4)cc3c21 [Example 1.9, 8-(2-Dimethylamino-pyrimidin-5-yl)-1-(2-methoxy-pyridin-3-yl)-3-methyl-1,3-dihydro-imidazo[4,5-c]quinolin-2-one] | 83.9 | – | 32.8 |
| COCCOc1cc(-c2ccc3ncc4c(c3c2)n(-c2ccc(OC)nc2OC)c(=O)n4C)cnc1C [Example 8.9, 1-(2,6-Dimethoxy-pyridin-3-yl)-8-[5-(2-methoxy-ethoxy)-6-methyl-pyridin-3-yl]-3-methyl-1,3-dihydro-imidazo[4,5-c]quinolin-2-one] | 74.9 | 4 | – |
| COCCOc1ccc(-n2c(=O)n(C)c3cnc4ccc(-c5cncc(N6CCC6)c5)cc4c32)c(C)n1 [Example 22.2, 8-(5-Azetidin-1-yl-pyridin-3-yl)-1-[6-(2-methoxy-ethoxy)-2-methyl-pyridin-3-yl]-3-methyl-1,3-dihydro-imidazo[4,5-c]quinolin-2-one] | 83.9 | 2 | – |
| CNc1ncc(-c2ccc3ncc4c(c3c2)n(-c2cccnc2C)c(=O)n4C)cn1 [Example 2.2, 3-Methyl-8-(2-methylamino-pyrimidin-5-yl)-1-(2-methyl-pyridin-3-yl)-1,3-dihydro-imidazo[4,5-c]quinolin-2-one] | 20.5 | – | 5.33 |
| COCCN(C)c1ccc(-n2c(=O)n(C)c3cnc4ccc(-c5cnc(CO)c(OC)c5)cc4c32)c(C)n1 [Example 15.9, 8-(6-Hydroxymethyl-5-methoxy-pyridin-3-yl)-1-{6-[(2-methoxy-ethyl)-methyl-amino]-2-methyl-pyridin-3-yl}-3-methyl-1,3-dihydro-imidazo[4,5-c]quinolin-2-one] | 38.8 | – | – |
| CCNc1cc(-c2ccc3ncc4c(c3c2)n(-c2ccc(OC)nc2C)c(=O)n4C)cnc1C [Example 11.7, 8-(5-Ethylamino-6-methyl-pyridin-3-yl)-1-(6-methoxy-2-methyl-pyridin-3-yl)-3-methyl-1,3-dihydro-imidazo[4,5-c]quinolin-2-one] | 8.3 | 2 | – |
| CCNc1cc(-c2ccc3ncc4c(c3c2)n(-c2ccc(N3CC(F)(F)C3)nc2C)c(=O)n4C)cnc1CO [Example 24.3, 1-[6-(3,3-Difluoro-azetidin-1-yl)-2-methyl-pyridin-3-yl]-8-(5-ethylamino-6-hydroxymethyl-pyridin-3-yl)-3-methyl-1,3-dihydro-imidazo[4,5-c]quinolin-2-one] | 8.1 | < 0.457 | – |
| COc1ccc(-c2ccc3ncc4c(c3c2)n(-c2cccnc2)c(=O)n4C)cn1 [Example 5.4, 8-(6-Methoxy-pyridin-3-yl)-3-methyl-1-pyridin-3-yl-1,3-dihydro-imidazo[4,5-c]quinolin-2-one] | 223 | – | – |
| CNc1ncc(-c2ccc3ncc4c(c3c2)n(-c2ccc(N(C)CCOC)nc2C)c(=O)n4C)cn1 [Example 15.2, 1-{6-[(2-Methoxy-ethyl)-methyl-amino]-2-methyl-pyridin-3-yl}-3-methyl-8-(2-methylamino-pyrimidin-5-yl)-1,3-dihydro-imidazo[4,5-c]quinolin-2-one] | 53.3 | 7 | – |
| CCNc1cc(-c2ccc3ncc4c(c3c2)n(-c2ccc(OCCOC)nc2C)c(=O)n4C)cnc1C [Example 13.4, 8-(5-Ethylamino-6-methyl-pyridin-3-yl)-1-[6-(2-methoxy-ethoxy)-2-methyl-pyridin-3-yl]-3-methyl-1,3-dihydro-imidazo[4,5-c]quinolin-2-one] | < 4.57 | 1 | – |
| CNc1ccc(-c2ccc3ncc4c(c3c2)n(-c2cnc(F)cc2C)c(=O)n4C)cn1 [Example 16.4, 1-(6-Fluoro-4-methyl-pyridin-3-yl)-3-methyl-8-(6-methylamino-pyridin-3-yl)-1,3-dihydro-imidazo[4,5-c]quinolin-2-one] | 408 | 5 | – |
| COCC(=O)Nc1ccc(-n2c(=O)n(C)c3cnc4ccc(-c5cncc(OC(C)C)c5)cc4c32)c(C)n1 [Example 20.5, N-{5-[8-(5-Isopropoxy-pyridin-3-yl)-3-methyl-2-oxo-2,3-dihydro-imidazo[4,5-c]quinolin-1-yl]-6-methyl-pyridin-2-yl}-2-methoxy-acetamide] | 352 | – | – |
| CNc1ncc(-c2ccc3ncc4c(c3c2)n(-c2ccc(F)nc2C)c(=O)n4C)cc1F [Example 7.12, 8-(5-Fluoro-6-methylamino-pyridin-3-yl)-1-(6-fluoro-2-methyl-pyridin-3-yl)-3-methyl-1,3-dihydro-imidazo[4,5-c]quinolin-2-one] | 97.8 | – | – |
| COc1ccc(-n2c(=O)n(C)c3cnc4ccc(-c5cnc(CO)c(OC)c5)cc4c32)c(C)n1 [Example 11.8, 8-(6-Hydroxymethyl-5-methoxy-pyridin-3-yl)-1-(6-methoxy-2-methyl-pyridin-3-yl)-3-methyl-1,3-dihydro-imidazo[4,5-c]quinolin-2-one] | 114 | – | – |
| COc1ccc(-c2ccc3ncc4c(c3c2)n(-c2cccnc2)c(=O)n4C)cc1OC [Example 5.2, 8-(3,4-Dimethoxy-phenyl)-3-methyl-1-pyridin-3-yl-1,3-dihydro-imidazo[4,5-c]quinolin-2-one] | 74.3 | – | – |
| CNC(=O)c1cc(-c2ccc3ncc4c(c3c2)n(-c2ccc(F)nc2C)c(=O)n4C)cnc1N [Example 7.14, 2-Amino-5-[1-(6-fluoro-2-methyl-pyridin-3-yl)-3-methyl-2-oxo-2,3-dihydro-1H-imidazo[4,5-c]quinolin-8-yl]-N-methyl-nicotinamide] | 140 | – | – |
| COc1cc(-c2ccc3ncc4c(c3c2)n(-c2ccc(N(C)C)nc2C)c(=O)n4C)cnc1CO [Example 19.4, 1-(6-Dimethylamino-2-methyl-pyridin-3-yl)-8-(6-hydroxymethyl-5-methoxy-pyridin-3-yl)-3-methyl-1,3-dihydro-imidazo[4,5-c]quinolin-2-one] | 74.5 | – | – |
